According to US20250177412A1, “SMALL-MOLECULE INHIBITORS TARGETING THE BOB1/OCT1 INTERFACE” (NANTES UNIVERSITE, priority 2022, published 2025):

Tests used:
[1] = test system: HEK293 cells; experiment: MTT assay; format: cell-based; details: data not shown
[2] = test system: memory B cells; experiment: In vitro plasmablast differentiation, two-phase human B cell model, flow cytometry; format: cell-based; details: for expression of CD20 marker (CD20+ B cells): day 7 (FIG. 3O-P); for frequency of CD27+ cells: day 4
Description: FIGS. 3A-Y are a combination of graphs and FACS plots showing that targeting BOB1-OCT(s) complex by compound 005 dose-dependently impairs B cells proliferation, activation and differentiation into plasmablasts in the human B cell differentiation in vitro model. Enriched memory B cells from the blood of healthy subjects (n=15) were stimulated at day 0 with anti-F(ab′)2, CD40L, CpG, and IL-2 for four days (activation phase). On day 4, cells were washed and stimulated with IL-2, IL-4, and IL-10 for additional three days (differentiation phase). Compound 005 was added daily to the cultures to a final concentration of 0 (DMSO), 5, 10, 15, 20 μM, as indicated. […] FIG. 3C-H show corresponding summarized data for the frequency (FIG. 3C, E and G) and relative mean fluorescence intensity (MFI; FIG. 3D, F and H) of CD27^+ (FIG. 3C-D), CD38^+ (FIG. 3E-F), and CD20^+ (FIG. 3G-H) B cells analyzed at Day 4. […] FIG. 3K-P show corresponding summarized data for the frequency (Fig. K, M and O) and relative mean fluorescence intensity (MFI; Fig. L, N and P) of CD27^+ (FIG. 3K-L), CD38^+ (FIG. 3M-N), and CD20^+ (FIG. 3O-P) B cells analyzed at Day 7. […] FIG. 3R-Y show the effect of compound 005 on the levels of IgG1 (FIG. 3R), IgG2 (FIG. 3S), IgG3 (FIG. 3T), IgG4 (FIG. 3U), IgA (FIG. 3V), IgE (FIG. 3W), IgM (FIG. 3X) and IgD (FIG. 3Y) immunoglobulin isotypes production at Day 7. Error bars are mean±SD. P values were determined with one-way ANOVA with Geisser-Greenhouse's multiple comparisons test.
Blood samples were obtained from healthy volunteers provided by Sanquin Blood Supply Foundation (Amsterdam, the Netherlands) or from Etablissement Français du Sang (Nantes, France) after written consent was obtained. Peripheral blood mononuclear cells (PBMCs) were isolated through Ficoll-Paque gradient centrifugation on Lymphoprep (Nycomed). Total B cells were isolated from freshly purified PBMCs by negative selection (B cell Isolation Kit II; Miltenyi Biotech, 130-091-151) on magnetic columns using autoMACS Pro Separator according to the manufacturer's instructions. Subsequently, memory and naïve B cells were isolated from negatively-selected CD19^+ B cells by positive and negative selection with CD27 MicroBeads (Miltenyi Biotech, 130-051-601) using autoMACS Pro Separator according to the manufacturer's instructions. Ultimately, purity of the MACS-isolated CD19^+ B cells, CD19^+CD27^+IgD^− memory B cells and CD19^+CD27^−IgD^+ […] was assessed by flow cytometry; purity was >90% for B cells, >65% for memory B cells, and >85% for naive B cells. All cell cultures were carried out in RPMI 1640 medium (Thermo Fisher Scientific) supplemented with 10% FCS, L-glutamine, and penicillin/streptomycin. Cells were incubated at 37° C. in a 5% CO2 atmosphere.
Cells were resuspended in PBS and labelled with Cell Proliferation Dye eFluor 450 (CPD) (eBioscience) at a final concentration of 10 μM at 37° C. for 10 min, kept on ice for 5 min, and washed twice with 10 mL of ice-cold RPMI 1640 10% FCS medium.
B cells were stimulated to differentiate into plasmablasts using a two-phase cell culture protocol as previously described. Briefly, B cells were seeded at 4×10^5 cells/mL in 24-well plates and activated during 4 days with 50 ng/mL recombinant human soluble CD40L (R&D Systems), 2.5 μg/mL CpG oligodeoxynucleotide (ODN) 2006 (Amidogen or Cayla Invivogen), 2 μg/mL F(ab′)2 fragment goat anti-human IgA+IgG+IgM (H+L) polyclonal Abs (anti-BCR) (Jackson ImmunoResearch Laboratories), and 50 U/mL human IL-2 (SARL Pharmaxie or Novartis). Day 4-activated B cells were washed and cultured at the same concentration for three additional days in a fresh medium containing 50 U/mL human IL-2, 10 ng/mL human IL-4 (R&D Systems), and 10 ng/mL human IL-10 (R&D Systems) to induce B cell differentiation into plasmablasts. […]

[3] = test system: naïve B cells; experiment: In vitro plasmablast differentiation with naive B cells; format: cell-based, human; details: data not shown
Description: Blood samples were obtained from healthy volunteers provided by Sanquin Blood Supply Foundation (Amsterdam, the Netherlands) or from Etablissement Français du Sang (Nantes, France) after written consent was obtained. Peripheral blood mononuclear cells (PBMCs) were isolated through Ficoll-Paque gradient centrifugation on Lymphoprep (Nycomed). Total B cells were isolated from freshly purified PBMCs by negative selection (B cell Isolation Kit II; Miltenyi Biotech, 130-091-151) on magnetic columns using autoMACS Pro Separator according to the manufacturer's instructions. […] Ultimately, purity of the MACS-isolated CD19^+ B cells, CD19^+CD27^+IgD^− memory B cells and CD19^+CD27^−IgD^+ […] was assessed by flow cytometry; purity was >90% for B cells, >65% for memory B cells, and >85% for naive B cells. […]
B cells were stimulated to differentiate into plasmablasts using a two-phase cell culture protocol as previously described. […] At days 0, 4 and 7, B cells were stained with viability marker LIVE/DEAD Fixable Aqua Dead Cell Stain (Thermofisher) to identify dead cells, followed by extracellular staining with anti-human mAbs: anti-CD20 FITC, anti-IgD BUV395, anti-CD27 BUV737, anti-CD38 BV605 (all from BD Biosciences) and analyzed by flow cytometry (FACSCelesta™, BD Biosciences). […]

For `Cc1ccc(NC(=O)C2CN(c3nc(NCCCc4ccc(F)cc4)nc(NCCC(=O)O)n3)c3ccccc3O2)cc1Cl` (centres unmarked) [compound 005, 3-((4-(2-((3-chloro-4-methylphenyl)carbamoyl)-2,3-dihydro-4H-benzo[b][1,4]oxazin-4-yl)-6-((3-(4-fluorophenyl)propyl)amino)-1,3,5-triazin-2-yl)amino)propanoic acid], the “toxicity for HEK293 cells” value ([1]; concentrations up to 40 μM) was “non-toxic or mildly toxic”, the “concentration from which inhibitory effect is observed in MTT assay” value [1] was at least 10 µM and the “frequency of CD38+ B cells” value ([2]; 5 μM, day 4, mean±SD) was 30.5±25.6%. The “proliferating (CPD low) B cells” value ([2]; 5 μM, day 4, mean±SD) was 66.3±4.8%, the “frequency of CD38+ B cells” value ([2]; 5 μM, day 7) was 68.9±10.2% and the “relative proportion of CD27+ cells” value ([2]; 5 μM, day 7) was 54.3±15.9%. The “frequency of CD38+ B cells” value ([2]; 10 μM, day 4, mean±SD) was 23.9±18.3, the “proliferating (CPD low) B cells” value ([2]; 10 μM, day 4, mean±SD) was 46.7±18.3% and the “CD20loCD38hi plasmablasts generation, median percentage decrease” value ([2]; 10 μM, day 7) was 30.3%. For the same compound, the “frequency of CD38+ B cells” value ([2]; 10 μM, day 7) was 55.5±16.1, the “relative proportion of CD27+ cells” value ([2]; 10 μM, day 7) was 53.6±14.2% and the “expression of CD20 marker (CD20+ B cells)” value ([2]; 10 μM) was 81.7±12.4%. For the same compound, the “frequency of CD27+ cells” value ([2]; 15 μM) was 9.5±11.7%, the “frequency of CD38+ B cells” value ([2]; 15 μM, day 4, mean±SD) was 4.3±3.7% and the “proliferating (CPD low) B cells” value ([2]; 15 μM, day 4, mean±SD) was 34.9±19.2%. For the same compound, the “CD20loCD38hi plasmablasts generation, median percentage decrease” value ([2]; 15 μM, day 7) was 70.5%, the “frequency of CD38+ B cells” value ([2]; 15 μM, day 7) was 26.3±13.9% and the “expression of CD20 marker (CD20+ B cells)” value ([2]; 15 μM) was 85.4±11.7%. The “frequency of CD27+ cells” value ([2]; 20 μM) was 6.4±6.4, the “frequency of CD38+ B cells” value ([2]; 20 μM, day 4, mean±SD) was 2.5±2.2 and the “proliferating (CPD low) B cells” value ([2]; 20 μM, day 4, mean±SD) was 20.4±19.0%. The “CD20loCD38hi plasmablasts generation, median percentage decrease” value ([2]; 20 μM, day 7) was 85.2%, the “frequency of CD38+ B cells” value ([2]; 20 μM, day 7) was 13.0±12.9 and the “relative proportion of CD27+ cells” value ([2]; 20 μM, day 7) was 9.4±8.1%. For the same compound, the “frequencies of naïve B cells” value ([2]; with the increase in concentration, day 7) was “significantly increased” and the “effect on proliferation, CD38 and CD20 expression and plasmablast differentiation” value [3] was “comparable dose-dependent effect”.
